This is an account of results in patent US7482486B2, “Methods for the preparation and formulation of magnesium valproate hydrate” (BioLink Life Sciences, Inc., priority 2005, dated 2009).

Series [1] has as its system deacetylase. As to conditions: dose between 20 and 40 mg/kg; patients with cervical cancer; cited from earlier work.
For series [2] the following is noted: in comparison with sodium valproate or valproic acid; cited from earlier work.
The conditions of series [3]: background statement; cited from earlier work.
The conditions of series [4]: cited from earlier work.
Series [5] concerns epileptic patients. As to the kind of experiment: Open, comparative clinical trial in epileptic patients versus sodium valproate. The settings on record: expected. The source says: The therapeutic benefit of magnesium valproate hydrate of the present invention is compared with that of sodium valproate in an open, comparative clinical trial in epileptic patients. […] Then treatment is substituted with magnesium valproate hydrate (alone or combined with other drugs) for 3 months.

Series [6] in a line: Hygroscopicity / deliquescence of the solid. The settings on record: isolated solid. The class given is physicochemical.
A short description of series [7]: Stability of the solid during storage. The settings on record: ambient conditions where stated, hydrate. The series is classed as physicochemical.
Setting [8] is: after 3 months of magnesium valproate hydrate, substituted for sodium valproate.

For the compound “2-propylpentanoic acid magnesium salt [magnesium valproate]”, the “deacetylase activity and histone acetylation in tumor tissues” value in series [1] is “inhibits deacetylase activity and hyperacetylates histones”. The absorption rate entry in series [2] is “slower and more regular absorption rate”.

`CCCC(CCC)C(=O)[O-].[Na+]` [Sodium valproate]: the hygroscopicity entry in series [3] is “hygroscopic”.

On to `CCCC(CCC)C(=O)O` [Valproic acid, 2-propylpentanoic acid], for which the solubility in water entry in series [4] is listed as “very slightly soluble in water”.

As to magnesium valproate hydrate, in series [5] (setting [8]), the “number of patients with no convulsions or only occasional convulsions” value is on record as “increase significantly” and the “percentage of patients without convulsions” value is recorded as “increase significantly”. Further, the “side effects (e.g., gastric discomfort or ulceration, malaise)” value in series [5] (versus sodium valproate) is on record as “fewer side effects”. The hygroscopicity / deliquescence result in series [6] is on record as “not hygroscopic or deliquescent”. Moreover, the stability during storage entry in series [7] is “stable during storage under ambient conditions”.

Take `CCCC(CCC)C(=O)O` [divalproex sodium]: in series [3], the hygroscopicity entry is listed as “not hygroscopic”.
